# Assays:
# Type in all cases: in vivo
# wild oat (Avena fatua) = test: Test C postemergence greenhouse test, plant response rating 0-100
# Text: (§1) At the same time, plants selected from these crop and weed species and also winter barley (Hordeum vulgare), bermudagrass (Cynodon dactylon), downy bromegrass (Bromus tectorum), canarygrass (Phalaris minor), cocklebur (common cocklebur, Xanthium strumarium), woolly cupgrass (Eriochloa villosa), deadnettle (henbit deadnettle, Lamium amplexicaule), green foxtail (Setaria viridis), goosegrass (Eleusine indica), surinam grass (Brachiaria decumbens), windgrass (Apera spica-venti), chickweed (common chickweed, Stellaria media), kochia (Kochia scoparia), and wild oat (Avena fatua), were planted in pots containing Redi-Earth® planting medium (Scotts Company, 14111 Scottslawn Road, Marysville, Ohio 43041) comprising spaghnum peat moss, vermiculite, wetting agent and starter nutrients and treated with postemergence applications of test chemicals formulated in the same manner. Plants ranged in height from 2 to 18 cm (1- to 4-leaf stage) for postemergence treatments. Treated plants and controls were maintained in a greenhouse for 13 to 15 days, after which time all species were compared to controls and visually evaluated. Plant response ratings, summarized in Table C, are based on a scale of 0 to 100 where 0 is no effect and 100 is complete control. A dash (-) response means no test result.
# kochia (Kochia scoparia) = test: as above
# Text: as §1
# [1] = test system: chickweed (common chickweed, Stellaria media); test: as above
# Text: as §1
# [2] = test system: johnsongrass (Sorghum halepense); test: Test C pre-/postemergence greenhouse test, plant response rating 0-100; conditions: Postemergence
# Text: (§2) Seeds of plant species selected from blackgrass (Alopecurus myosuroides), Italian ryegrass (Lolium multiflorum), winter wheat (Triticum aestivum), galium (catchweed bedstraw, Galium aparine), corn (Zea mays), large (Lg) crabgrass (Digitaria sanguinalis), giant foxtail (Setaria faberii), johnsongrass (Sorghum halepense), lambsquarters (Chenopodium album), morningglory (Ipomoea coccinea), yellow nutsedge (Cyperus esculentus), pigweed (Amaranthus retroflexus), ragweed (common ragweed, Ambrosia elatior), soybean (Glycine max), barnyardgrass (Echinochloa crus-galli), oilseed rape (Brassica napus), waterhemp (common waterhemp, Amaranthus rudis), and velvetleaf (Abutilon theophrasti) were planted into a blend of loam soil and sand and treated preemergence with test chemicals formulated in a non-phytotoxic solvent mixture which included a surfactant.
# as §1
# [3] = test system: giant foxtail (Setaria faberii); test: as above; conditions: Postemergence
# Text: as §2, §1
# [4] = test system: winter wheat (Triticum aestivum); test: as above; conditions: Postemergence
# Text: as §2, §1
# [5] = test system: pigweed (Amaranthus retroflexus); test: Test A pre-/postemergence greenhouse herbicide test, visual injury rating 0-100
# How it was run: (§3)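 Seeds planted in loam-sand blend; preemergence directed soil spray and postemergence spray at 2–10 cm, one- to two-leaf stage, compounds formulated in non-phytotoxic solvent with surfactant. After about 10 days in greenhouse, injury rated visually against untreated controls, 0 (no effect) to 100 (complete control).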
# [6] = test system: velvetleaf (Abutilon theophrasti); test: as above
# How it was run: as §3
# [7] = test system: large (Lg) crabgrass (Digitaria sanguinalis); test: as above
# How it was run: as §3
# [8] = test system: wheat (Triticum aestivum); test: as above
# How it was run: as §3
# corn (Zea mays) = test: as above
# How it was run: as §3
# [9] = test system: giant foxtail (Setaria faberii); test: as above
# How it was run: as §3
# [10] = test system: morningglory (Ipomoea spp.); test: as above
# How it was run: as §3
# [11] = test system: barnyardgrass (Echinochloa crus-galli); test: as above
# How it was run: as §3
structure (smiles),measurement,setting,value
CCn1cc(C(=NN2CCCC2)c2ccccc2)c(-c2cc(Cl)cc(Cl)c2)n1 [Compound 37],"Plant response rating (0 to 100), Oat, Wild",wild oat (Avena fatua); 62 g ai/ha,0
same,"Plant response rating (0 to 100), Oat, Wild",wild oat (Avena fatua); 125 g ai/ha,0
same,"Plant response rating, Oat, Wild","wild oat (Avena fatua); 250 g ai/ha, scale 0 to 100",0
same,"Plant response rating (0 to 100), Kochia",kochia (Kochia scoparia); 62 g ai/ha,15
same,"Plant response rating (0 to 100), Kochia",kochia (Kochia scoparia); 125 g ai/ha,15
same,"Plant response rating, Kochia","kochia (Kochia scoparia); 250 g ai/ha, scale 0 to 100",35
same,"Plant response rating (0 to 100), Chickweed",[1]; 31 g ai/ha,70
same,"Plant response rating (0 to 100), Chickweed",[1]; 125 g ai/ha,70
same,"Plant response rating, Chickweed","[1]; 250 g ai/ha, scale 0 to 100",75
same,"Plant response rating (0 to 100), Johnsongrass",[2]; 62 g ai/ha,0
same,"Plant response rating (0 to 100), Johnsongrass",[2]; 125 g ai/ha,0
same,"Plant response rating, Johnsongrass","[2]; 250 g ai/ha, scale 0 to 100",0
same,"Plant response rating (0 to 100), Foxtail, Giant",[3]; 31 g ai/ha,0
same,"Plant response rating (0 to 100), Foxtail, Giant",[3]; 62 g ai/ha,0
same,"Plant response rating (0 to 100), Foxtail, Giant",[3]; 125 g ai/ha,25
same,"Plant response rating, Foxtail, Giant","[3]; 250 g ai/ha, scale 0 to 100",25
same,"Plant response rating (0 to 100), Wheat",[4]; 62 g ai/ha,0
same,"Plant response rating (0 to 100), Wheat",[4]; 125 g ai/ha,0
same,"Plant response rating, Wheat","[4]; 250 g ai/ha, scale 0 to 100",0
same,"Plant response rating (0 to 100 scale), Pigweed","[5]; Postemergence, 125 g ai/ha",80
same,"Plant response rating (0 to 100 scale), Pigweed","[5]; Postemergence, 500 g ai/ha",100
same,"Pigweed plant response rating (0 = no effect, 100 = complete control)","[5]; Preemergence, 125 g ai/ha",40
same,"Plant response rating (0 to 100 scale), Pigweed","[5]; Preemergence, 500 g ai/ha",90
same,"Plant response rating (0 to 100 scale), Velvetleaf","[6]; Postemergence, 125 g ai/ha",80
same,"Plant response rating (0 to 100 scale), Velvetleaf","[6]; Postemergence, 500 g ai/ha",100
same,"Velvetleaf plant response rating (0 = no effect, 100 = complete control)","[6]; Preemergence, 125 g ai/ha",0
same,"Plant response rating (0 to 100 scale), Velvetleaf","[6]; Preemergence, 500 g ai/ha",40
same,"Plant response rating (0 to 100 scale), Crabgrass, Large","[7]; Postemergence, 125 g ai/ha",0
same,"Plant response rating (0 to 100 scale), Crabgrass, Large","[7]; Postemergence, 500 g ai/ha",0
same,"Crabgrass, Large plant response rating (0 = no effect, 100 = complete control)","[7]; Preemergence, 125 g ai/ha",0
same,"Plant response rating (0 to 100 scale), Crabgrass, Large","[7]; Preemergence, 500 g ai/ha",0
same,"Plant response rating (0 to 100 scale), Wheat","[8]; Postemergence, 125 g ai/ha",0
same,"Plant response rating (0 to 100 scale), Wheat","[8]; Postemergence, 500 g ai/ha",0
same,"Wheat plant response rating (0 = no effect, 100 = complete control)","[8]; Preemergence, 125 g ai/ha",0
same,"Plant response rating (0 to 100 scale), Wheat","[8]; Preemergence, 500 g ai/ha",0
same,"Plant response rating (0 to 100 scale), Corn","corn (Zea mays); Postemergence, 125 g ai/ha",0
same,"Plant response rating (0 to 100 scale), Corn","corn (Zea mays); Postemergence, 500 g ai/ha",0
same,"Corn plant response rating (0 = no effect, 100 = complete control)","corn (Zea mays); Preemergence, 125 g ai/ha",0
same,"Plant response rating (0 to 100 scale), Corn","corn (Zea mays); Preemergence, 500 g ai/ha",0
same,"Plant response rating (0 to 100 scale), Foxtail, Giant","[9]; Postemergence, 125 g ai/ha",0
same,"Plant response rating (0 to 100 scale), Foxtail, Giant","[9]; Postemergence, 500 g ai/ha",0
same,"Foxtail, Giant plant response rating (0 = no effect, 100 = complete control)","[9]; Preemergence, 125 g ai/ha",0
same,"Plant response rating (0 to 100 scale), Foxtail, Giant","[9]; Preemergence, 500 g ai/ha",0
same,"Plant response rating (0 to 100 scale), Morningglory","[10]; Postemergence, 125 g ai/ha",0
same,"Plant response rating (0 to 100 scale), Morningglory","[10]; Postemergence, 500 g ai/ha",0
same,"Morningglory plant response rating (0 = no effect, 100 = complete control)","[10]; Preemergence, 125 g ai/ha",0
same,"Plant response rating (0 to 100 scale), Morningglory","[10]; Preemergence, 500 g ai/ha",0
same,"Plant response rating (0 to 100 scale), Barnyardgrass","[11]; Postemergence, 125 g ai/ha",0
same,"Plant response rating (0 to 100 scale), Barnyardgrass","[11]; Postemergence, 500 g ai/ha",0
same,"Barnyardgrass plant response rating (0 = no effect, 100 = complete control)","[11]; Preemergence, 125 g ai/ha",0
same,"Plant response rating (0 to 100 scale), Barnyardgrass","[11]; Preemergence, 500 g ai/ha",0

# — patent US10167262B2, “Herbicidal substituted 3-arylpyrazoles” (FMC CORPORATION, priority 2014, dated 2019)
